Tests used:
Test in all cases: KINOMEscan competition binding
Conditions in all cases: compound 0.1 µM
[1] = test system: FLT3 (human), P36888 [R834Q]
MAPK11 (human) = MAPK11 (human) (UniProt Q15759)
[2] = test system: ABL1 (human), P00519 [M351T]
CDKL5 (human) = CDKL5 (human) (UniProt O76039)
TRPM6 (human) = TRPM6 (human) (UniProt Q9BX84)
[3] = test system: EGFR (human), P00533 [746-750 del]
CLK3 (human) = CLK3 (human) (UniProt P49761)
CAMK2G (human) = CAMK2G (human) (UniProt Q13555)
NEK4 (human) = NEK4 (human) (UniProt P51957)
ULK2 (human) = ULK2 (human) (UniProt Q8IYT8)
STK32B (human) = STK32B (human) (UniProt Q9NY57)
CDK18 (human) = CDK18 (human) (UniProt Q07002)
CDK18 (human), sequence (Q07002 whole entry, looked up): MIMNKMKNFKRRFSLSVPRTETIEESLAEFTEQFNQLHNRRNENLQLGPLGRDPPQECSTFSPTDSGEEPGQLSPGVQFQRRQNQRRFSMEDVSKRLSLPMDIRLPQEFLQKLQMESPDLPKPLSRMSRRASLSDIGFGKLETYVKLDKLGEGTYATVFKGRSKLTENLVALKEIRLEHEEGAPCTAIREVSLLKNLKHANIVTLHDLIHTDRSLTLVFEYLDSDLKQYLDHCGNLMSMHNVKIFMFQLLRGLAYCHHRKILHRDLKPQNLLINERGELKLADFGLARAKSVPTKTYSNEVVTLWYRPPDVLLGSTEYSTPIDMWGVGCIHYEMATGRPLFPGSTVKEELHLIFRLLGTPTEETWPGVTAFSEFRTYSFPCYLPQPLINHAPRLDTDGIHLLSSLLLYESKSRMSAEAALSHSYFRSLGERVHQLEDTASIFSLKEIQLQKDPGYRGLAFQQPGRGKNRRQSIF

MAP2K4 (human) = MAP2K4 (human) (UniProt P45985)
PLK1 (human) = PLK1 (human) (UniProt P53350)
ERBB4 (human) = ERBB4 (human) (UniProt Q15303)
ROCK2 (human) = ROCK2 (human) (UniProt O75116)
MAP2K7 (human) = MAP2K7 (human) (UniProt O14733)
[4] = test system: KIT (human), P10721 [V559D/T670I]
KIT (human), P10721 [V559D/T670I], sequence (P10721 whole entry V559D/T670I, looked up): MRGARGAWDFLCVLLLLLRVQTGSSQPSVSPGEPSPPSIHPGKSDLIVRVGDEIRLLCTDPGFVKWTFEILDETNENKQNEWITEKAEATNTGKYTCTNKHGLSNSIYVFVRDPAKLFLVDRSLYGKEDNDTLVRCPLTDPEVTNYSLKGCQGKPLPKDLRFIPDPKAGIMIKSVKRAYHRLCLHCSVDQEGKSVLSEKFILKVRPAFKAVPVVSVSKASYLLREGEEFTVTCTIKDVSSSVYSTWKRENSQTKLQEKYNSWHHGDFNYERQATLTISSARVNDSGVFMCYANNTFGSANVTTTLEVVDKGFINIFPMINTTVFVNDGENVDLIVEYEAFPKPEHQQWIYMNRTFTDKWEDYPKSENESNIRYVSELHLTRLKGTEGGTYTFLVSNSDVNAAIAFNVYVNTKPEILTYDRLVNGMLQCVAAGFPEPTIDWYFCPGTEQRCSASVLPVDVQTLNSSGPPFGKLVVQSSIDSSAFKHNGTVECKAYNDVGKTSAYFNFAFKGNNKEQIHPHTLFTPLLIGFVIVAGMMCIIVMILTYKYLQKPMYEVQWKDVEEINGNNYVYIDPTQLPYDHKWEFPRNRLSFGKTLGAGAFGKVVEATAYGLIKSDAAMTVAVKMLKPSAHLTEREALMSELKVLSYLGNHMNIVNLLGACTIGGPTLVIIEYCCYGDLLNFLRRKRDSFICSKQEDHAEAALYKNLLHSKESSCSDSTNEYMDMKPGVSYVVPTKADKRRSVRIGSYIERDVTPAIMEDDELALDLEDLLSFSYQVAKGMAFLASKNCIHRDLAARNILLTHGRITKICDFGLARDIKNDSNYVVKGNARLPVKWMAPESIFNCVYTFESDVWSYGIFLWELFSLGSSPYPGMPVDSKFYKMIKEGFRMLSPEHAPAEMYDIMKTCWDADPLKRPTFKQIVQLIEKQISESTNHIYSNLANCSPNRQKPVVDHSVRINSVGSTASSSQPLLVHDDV

CLK4 (human) = CLK4 (human) (UniProt Q9HAZ1)
PRPF4B (human) = PRPF4B (human) (UniProt Q13523)
[5] = test system: PIK3CA (human), P42336 [C420R]
PIK3CA (human), P42336 [C420R], sequence (P42336 whole entry C420R, looked up): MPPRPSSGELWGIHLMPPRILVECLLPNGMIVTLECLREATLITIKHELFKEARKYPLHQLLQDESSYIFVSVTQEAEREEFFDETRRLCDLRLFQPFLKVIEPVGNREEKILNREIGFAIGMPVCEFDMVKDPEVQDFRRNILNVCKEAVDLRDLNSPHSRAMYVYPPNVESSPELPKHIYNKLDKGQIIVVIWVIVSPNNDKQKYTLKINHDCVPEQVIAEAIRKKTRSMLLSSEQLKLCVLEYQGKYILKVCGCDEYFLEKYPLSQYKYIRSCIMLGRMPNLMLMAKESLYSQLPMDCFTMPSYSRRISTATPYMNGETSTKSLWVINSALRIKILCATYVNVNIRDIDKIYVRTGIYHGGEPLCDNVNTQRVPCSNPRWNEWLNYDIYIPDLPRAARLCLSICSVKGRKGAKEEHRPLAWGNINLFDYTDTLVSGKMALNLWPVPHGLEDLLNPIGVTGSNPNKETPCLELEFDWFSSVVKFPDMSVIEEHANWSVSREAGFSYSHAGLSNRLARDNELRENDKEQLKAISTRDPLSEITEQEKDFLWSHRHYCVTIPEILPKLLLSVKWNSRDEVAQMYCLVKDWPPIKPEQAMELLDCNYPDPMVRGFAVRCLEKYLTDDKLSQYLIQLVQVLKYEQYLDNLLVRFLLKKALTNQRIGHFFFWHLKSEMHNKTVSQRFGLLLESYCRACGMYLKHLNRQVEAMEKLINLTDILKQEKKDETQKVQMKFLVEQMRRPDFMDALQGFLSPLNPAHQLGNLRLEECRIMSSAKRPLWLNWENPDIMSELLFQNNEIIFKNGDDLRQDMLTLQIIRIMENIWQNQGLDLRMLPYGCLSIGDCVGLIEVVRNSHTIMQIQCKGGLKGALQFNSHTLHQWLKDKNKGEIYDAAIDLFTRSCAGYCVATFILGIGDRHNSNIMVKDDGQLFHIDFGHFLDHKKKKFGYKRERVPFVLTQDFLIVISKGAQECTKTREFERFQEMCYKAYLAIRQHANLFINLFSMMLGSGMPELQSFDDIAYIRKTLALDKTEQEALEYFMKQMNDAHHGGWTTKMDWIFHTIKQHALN

LATS1 (human) = LATS1 (human) (UniProt O95835)
CDKL1 (human) = CDKL1 (human) (UniProt Q00532)
PTK2B (human) = PTK2B (human) (UniProt Q14289)
PTK2B (human), sequence (Q14289 whole entry, looked up): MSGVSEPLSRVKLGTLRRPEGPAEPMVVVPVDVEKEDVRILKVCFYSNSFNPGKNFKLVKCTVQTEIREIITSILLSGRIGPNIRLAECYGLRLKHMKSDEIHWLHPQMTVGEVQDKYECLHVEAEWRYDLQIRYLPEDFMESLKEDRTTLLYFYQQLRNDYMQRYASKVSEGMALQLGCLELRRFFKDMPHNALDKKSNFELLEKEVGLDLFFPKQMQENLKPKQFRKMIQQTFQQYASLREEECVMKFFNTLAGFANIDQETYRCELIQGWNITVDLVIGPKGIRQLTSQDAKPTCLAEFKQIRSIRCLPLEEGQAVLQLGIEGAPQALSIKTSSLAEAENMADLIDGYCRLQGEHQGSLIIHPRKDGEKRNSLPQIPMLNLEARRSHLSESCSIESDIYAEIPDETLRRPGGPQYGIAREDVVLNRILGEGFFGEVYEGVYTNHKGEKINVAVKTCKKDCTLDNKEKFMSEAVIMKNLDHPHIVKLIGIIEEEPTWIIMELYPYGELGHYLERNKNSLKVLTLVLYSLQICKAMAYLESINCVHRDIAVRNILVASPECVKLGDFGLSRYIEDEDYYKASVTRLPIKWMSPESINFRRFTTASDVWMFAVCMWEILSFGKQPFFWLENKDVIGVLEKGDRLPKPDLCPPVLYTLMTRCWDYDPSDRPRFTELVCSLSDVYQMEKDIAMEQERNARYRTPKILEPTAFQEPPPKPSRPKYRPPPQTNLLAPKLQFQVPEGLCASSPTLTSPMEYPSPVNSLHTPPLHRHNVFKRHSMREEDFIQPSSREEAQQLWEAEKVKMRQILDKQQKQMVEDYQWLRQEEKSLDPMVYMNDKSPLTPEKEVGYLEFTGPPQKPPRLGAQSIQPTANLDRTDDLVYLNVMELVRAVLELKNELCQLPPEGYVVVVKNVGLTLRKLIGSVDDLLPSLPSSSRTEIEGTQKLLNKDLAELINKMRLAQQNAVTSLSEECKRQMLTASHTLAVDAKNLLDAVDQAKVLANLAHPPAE

CDK4 CCND1 (human) = CDK4 CCND1 (human) (UniProt P11802+P24385)
FGR (human) = FGR (human) (UniProt P09769)
CaMK1 (human) = CaMK1 (human) (UniProt Q14012)
PAK3 (human) = PAK3 (human) (UniProt O75914)
SRC (human) = SRC (human) (UniProt P12931)
[6] = test system: MET (human), P08581 [Y1235D]
PIK3CB (human) = PIK3CB (human) (UniProt P42338)
PRKAA2 (human) = PRKAA2 (human) (UniProt P54646)
RPS6KA6 KD1 (human) = RPS6KA6 KD1 (human) (UniProt Q9UK32)
PLK4 (human) = PLK4 (human) (UniProt O00444)
TLK1 (human) = TLK1 (human) (UniProt Q9UKI8)
LIMK2 (human) = LIMK2 (human) (UniProt P53671)
LIMK2 (human), sequence (P53671 whole entry, looked up): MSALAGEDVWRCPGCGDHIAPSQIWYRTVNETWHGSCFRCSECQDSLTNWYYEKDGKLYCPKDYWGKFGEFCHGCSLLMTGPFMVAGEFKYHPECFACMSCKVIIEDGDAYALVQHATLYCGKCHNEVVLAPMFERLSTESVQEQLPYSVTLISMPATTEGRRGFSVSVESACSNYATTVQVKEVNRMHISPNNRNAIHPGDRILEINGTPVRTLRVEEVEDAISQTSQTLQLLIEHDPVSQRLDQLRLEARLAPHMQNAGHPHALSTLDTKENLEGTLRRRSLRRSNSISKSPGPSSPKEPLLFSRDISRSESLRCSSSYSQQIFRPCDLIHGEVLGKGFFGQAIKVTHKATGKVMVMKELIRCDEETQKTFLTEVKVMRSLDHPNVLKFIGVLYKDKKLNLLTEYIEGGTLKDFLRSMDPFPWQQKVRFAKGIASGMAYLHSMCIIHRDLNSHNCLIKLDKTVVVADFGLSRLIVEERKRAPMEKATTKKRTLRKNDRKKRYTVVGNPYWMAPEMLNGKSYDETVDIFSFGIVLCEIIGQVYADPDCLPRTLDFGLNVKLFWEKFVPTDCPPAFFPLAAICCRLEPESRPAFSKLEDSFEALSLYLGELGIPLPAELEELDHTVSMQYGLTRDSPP

CDK5 (human) = CDK5 (human) (UniProt Q00535)
CDK5 (human), sequence (Q00535 whole entry, looked up): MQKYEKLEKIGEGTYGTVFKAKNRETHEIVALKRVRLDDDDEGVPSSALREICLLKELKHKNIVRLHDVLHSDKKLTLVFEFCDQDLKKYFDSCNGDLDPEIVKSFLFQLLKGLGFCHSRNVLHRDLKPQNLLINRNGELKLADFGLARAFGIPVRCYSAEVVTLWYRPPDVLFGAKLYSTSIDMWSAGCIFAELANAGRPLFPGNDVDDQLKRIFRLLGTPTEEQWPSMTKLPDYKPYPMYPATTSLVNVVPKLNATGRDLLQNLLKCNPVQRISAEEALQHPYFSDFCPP

HIPK4 (human) = HIPK4 (human) (UniProt Q8NE63)
HIPK4 (human), sequence (Q8NE63 whole entry, looked up): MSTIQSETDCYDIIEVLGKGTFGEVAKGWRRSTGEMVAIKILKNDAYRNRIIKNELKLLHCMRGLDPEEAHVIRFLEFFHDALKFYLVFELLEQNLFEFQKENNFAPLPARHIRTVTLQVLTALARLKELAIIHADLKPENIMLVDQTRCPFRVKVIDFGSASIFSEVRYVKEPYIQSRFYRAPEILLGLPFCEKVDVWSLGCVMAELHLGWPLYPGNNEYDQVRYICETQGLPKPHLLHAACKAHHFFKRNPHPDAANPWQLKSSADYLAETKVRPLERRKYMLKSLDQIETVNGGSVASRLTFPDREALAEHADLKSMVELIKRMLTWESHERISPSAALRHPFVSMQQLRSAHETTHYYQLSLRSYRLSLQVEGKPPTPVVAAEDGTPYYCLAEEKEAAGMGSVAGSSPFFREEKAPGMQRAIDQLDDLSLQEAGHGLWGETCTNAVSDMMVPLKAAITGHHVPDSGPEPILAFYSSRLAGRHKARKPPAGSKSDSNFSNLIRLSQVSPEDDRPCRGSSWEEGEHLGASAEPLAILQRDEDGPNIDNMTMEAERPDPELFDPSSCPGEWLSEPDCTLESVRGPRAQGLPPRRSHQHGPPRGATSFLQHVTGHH

TLK2 (human) = TLK2 (human) (UniProt Q86UE8)
MAPK15 (human) = MAPK15 (human) (UniProt Q8TD08)

CCc1ccc(C(=O)Nc2cc(CN3CCN(C)CC3)cc(C(F)(F)F)c2)cc1C#Cc1cnc2ccnn2c1
kinase still bound, per cent of control [1]: 100% | kinase still bound, per cent of control (MAPK11 (human)): 100% | kinase still bound, per cent of control [2]: 100% | kinase still bound, per cent of control (CDKL5 (human)): 100% | kinase still bound, per cent of control (TRPM6 (human)): 90% | kinase still bound, per cent of control [3]: 100% | kinase still bound, per cent of control (CLK3 (human)): 91% | kinase still bound, per cent of control (CAMK2G (human)): 79% | kinase still bound, per cent of control (NEK4 (human)): 100% | kinase still bound, per cent of control (ULK2 (human)): 86% | kinase still bound, per cent of control (STK32B (human)): 100% | kinase still bound, per cent of control (CDK18 (human)): 100% | kinase still bound, per cent of control (MAP2K4 (human)): 100% | kinase still bound, per cent of control (PLK1 (human)): 80% | kinase still bound, per cent of control (ERBB4 (human)): 100% | kinase still bound, per cent of control (ROCK2 (human)): 100% | kinase still bound, per cent of control (MAP2K7 (human)): 100% | kinase still bound, per cent of control [4]: 96% | kinase still bound, per cent of control (CLK4 (human)): 100% | kinase still bound, per cent of control (PRPF4B (human)): 75% | kinase still bound, per cent of control [5]: 100% | kinase still bound, per cent of control (LATS1 (human)): 100% | kinase still bound, per cent of control (CDKL1 (human)): 100% | kinase still bound, per cent of control (PTK2B (human)): 90% | kinase still bound, per cent of control (CDK4 CCND1 (human)): 100% | kinase still bound, per cent of control (FGR (human)): 59% | kinase still bound, per cent of control (CaMK1 (human)): 75% | kinase still bound, per cent of control (PAK3 (human)): 41% | kinase still bound, per cent of control (SRC (human)): 76% | kinase still bound, per cent of control [6]: 55% | kinase still bound, per cent of control (PIK3CB (human)): 100% | kinase still bound, per cent of control (PRKAA2 (human)): 100% | kinase still bound, per cent of control (RPS6KA6 KD1 (human)): 100% | kinase still bound, per cent of control (PLK4 (human)): 100% | kinase still bound, per cent of control (TLK1 (human)): 100% | kinase still bound, per cent of control (LIMK2 (human)): 100% | kinase still bound, per cent of control (CDK5 (human)): 100% | kinase still bound, per cent of control (HIPK4 (human)): 78% | kinase still bound, per cent of control (TLK2 (human)): 100% | kinase still bound, per cent of control (MAPK15 (human)): 100%

— the kinase profiling compilation of Christmann-Franck et al. (2016)
